{"source": "patent US6696404B1", "about": "“Antibacterial composition having xanthorrizol” (LG Household & Healthcare, priority 1999, dated 2004)", "assay_type_in_all_cases": "cell-based", "key": {"Propionibacterium acnes": {"test_system": "Propionibacterium acnes", "assay": "Viable cell count after xanthorrizol treatment", "details": "xanthorrizol 0.002%; 37° C.", "experimental": "To measure the antibacterial activity of xanthorrizol, it was dissolved in DMSO to give specimens with a concentration of 0.001%, 0.0015% and 0.002%, respectively, and incubated with test microorganisms([…] CFU/ml) at 37° C. for 1, 2, 5, and 10 hours, respectively. Then, they were subjected to serial 10-fold dilution, incubated with an acne-causing pathogen, Propionibacterium acnes for 24 to 48 hours, and counted the viable cell number of the pathogen. FIG. 2 is a graph showing antibacterial activity of xanthorrizol in terms of viable cell numbers, where ♦ represents DMSO, control; ▪, 0.001% crude extract; ▾, 0.0015% crude extract; x, 0.002% crude extract, respectively."}, "Streptococcus mutans [1]": {"test_system": "Streptococcus mutans", "assay": "Thermal stability: well diffusion analysis after heating", "details": "0.1% in DMSO heated 30 minutes", "experimental": "Xanthorrizol was dissolved in DMSO to prepare specimens with a concentration of 0.1%. The specimens were heated for 30 minutes at the temperature of 60° C., 70° C., 80° C., 90° C., 100° C. and 121° C., respectively. Then, antibacterial activity against Streptococcus mutans was determined for each specimen by well diffusion analysis, whose results are shown in Table 13."}, "[2]": {"test_system": "Saccharomyces cerevisiae ATCC 9763", "assay": "MIC by 2-fold dilution", "details": "ATCC9763, 2×10^5 CFU/ml, 30 to 37° C., more than 24 hours", "experimental": "(§1) In addition, minimum inhibitory concentration(MIC, μg/ml) for various microorganisms was determined by performing 2-fold dilution: first, 1 ml of medium was taken into each tube, and 1 ml of xanthorrizol(0.05% in DMSO) was added to only one tube to make 2-fold dilution. Then, serial 2-fold dilution was further carried out for the rest of the tubes, starting from the tube containing xanthorrizol. 100 μl of microorganism was added into each tube prepared by the 2-fold dilution to contain a final cell number of 2×10^5 CFU/ml, and incubated at 30 to 37° C. for more than 24 hours to determine minimum inhibitory concentrations for various test microorganisms(see: Table 12)."}, "[3]": {"test_system": "Candida albicans ATCC 10231", "assay": "MIC by 2-fold dilution", "details": "ATCC10231, 2×10^5 CFU/ml, 30 to 37° C., more than 24 hours", "experimental": "as §1"}, "[4]": {"test_system": "Staphylococcus aureus ATCC 12600", "assay": "MIC by 2-fold dilution", "details": "ATCC12600, 2×10^5 CFU/ml, 30 to 37° C., more than 24 hours", "experimental": "as §1"}, "[5]": {"test_system": "Actinomyces viscosus ATCC 15988", "assay": "MIC by 2-fold dilution", "details": "ATCC15988, 2×10^5 CFU/ml, 30 to 37° C., more than 24 hours", "experimental": "as §1"}, "[6]": {"test_system": "Streptococcus sobrinus ATCC 27351", "assay": "MIC by 2-fold dilution", "details": "ATCC27351, 2×10^5 CFU/ml, 30 to 37° C., more than 24 hours", "experimental": "as §1"}, "[7]": {"test_system": "Streptococcus mutans ATCC 25175", "assay": "MIC by 2-fold dilution", "details": "ATCC25175, 2×10^5 CFU/ml, 30 to 37° C., more than 24 hours", "experimental": "as §1"}, "[8]": {"test_system": "Penicilium chrysogenum IFO 5472", "assay": "MIC by 2-fold dilution", "details": "2×10^5 CFU/ml; 30 to 37° C., more than 24 hours", "experimental": "as §1"}, "[9]": {"test_system": "Pityrosporum pacchydermatis ATCC 14522", "assay": "MIC by 2-fold dilution", "details": "2×10^5 CFU/ml; 30 to 37° C., more than 24 hours", "experimental": "as §1"}, "[10]": {"test_system": "Enterococcus faecalis ATCC 19433", "assay": "MIC by 2-fold dilution", "details": "ATCC19433, 2×10^5 CFU/ml, 30 to 37° C., more than 24 hours", "experimental": "as §1"}, "[11]": {"test_system": "Porphyromonas gingivalis W 50", "assay": "MIC by 2-fold dilution", "details": "W50, 2×10^5 CFU/ml, 30 to 37° C., more than 24 hours", "experimental": "as §1"}, "[12]": {"test_system": "Bifidobacterium bifidum ATCC 29521", "assay": "MIC by 2-fold dilution", "details": "ATCC29521, 2×10^5 CFU/ml, 30 to 37° C., more than 24 hours", "experimental": "as §1"}, "[13]": {"test_system": "Streptococcus salivarius ATCC 9758", "assay": "MIC by 2-fold dilution", "details": "ATCC9758, 2×10^5 CFU/ml, 30 to 37° C., more than 24 hours", "experimental": "as §1"}, "[14]": {"test_system": "Cladosporium cladosporioides IFO 6348", "assay": "MIC by 2-fold dilution", "details": "IFO6348, 2×10^5 CFU/ml, 30 to 37° C., more than 24 hours", "experimental": "as §1"}, "[15]": {"test_system": "Lactobacillus casei ATCC 4646", "assay": "MIC by 2-fold dilution", "details": "Lacticaseibacillus casei, ATCC4646; 2×10^5 CFU/ml; 30 to 37° C., more than 24 hours", "experimental": "as §1"}, "[16]": {"test_system": "Lactobacillus aciophilus ATCC 4356", "assay": "MIC by 2-fold dilution", "details": "ATCC4356, 2×10^5 CFU/ml, 30 to 37° C., more than 24 hours", "experimental": "as §1"}, "[17]": {"test_system": "Candida glabrata IFO 0622", "assay": "MIC by 2-fold dilution", "details": "Nakaseomyces glabratus, IFO0622; 2×10^5 CFU/ml; 30 to 37° C., more than 24 hours", "experimental": "as §1"}, "Streptococcus mutans [18]": {"test_system": "Streptococcus mutans", "assay": "Efflux of intracellular macromolecules and ions after xanthorrizol treatment", "details": "5 and 10 μg/ml xanthorrizol; FIGS. 4a, 4b, 5a, 5b", "experimental": "Streptococcus mutans was treated with 5 and 10 μg/ml of xanthorrizol for 1, 2, 5 and 10 minutes, respectively, to examine the efflux of intracellular macromolecules and ions by the xanthorrizol-mediated cell damage. FIGS. 4a and 4b are graphs showing the efflux of neucleic acid and protein from Streptococcus mutans after xanthorrizol treatment, and FIGS. 5a and 5b, calcium efflux and magnesium efflux, where ♦ represents 0.1% DMSO, control; ▪, Streptococcus mutans treated with 5 μg/ml xanthorrizol; •, Streptococcus mutans treated with 10 μg/ml xanthorrizol, respectively."}, "the pathogens": {"test_system": "the pathogens", "assay": "Change in cell morphology (TEM) after xanthorrizol treatment", "details": "10 μg/ml xanthorrizol for 30 minutes", "experimental": "To assess the extent of xanthorrizol-mediated cell damage, 10 μg/ml xanthorrizol was treated to the pathogens for 30 minutes. […] Further, it was assumed that through the efflux of intracellular macromolecules and ions, the permeability of cell wall is increased to accelerate the efflux of intracellular components, which in turn inactivates cellular enzymes and causes the malfunction of cell wall."}}, "data": [{"smiles": "CC(C)=CCC[C@@H](C)c1ccc(C)c(O)c1", "note": "[xanthorrizol, 1,3,5,10-bisabolatetraen-3-ol]", "values": [{"measurement": "Eradication of the microorganism (viable cell number, FIG. 2)", "setting": "Propionibacterium acnes", "value": "eradicated almost completely in one hour"}, {"measurement": "Diameter of Clear Zone", "setting": "Streptococcus mutans [1]; Treatment Temp. 60 ° C.", "value": 17, "unit": "mm"}, {"measurement": "Diameter of Clear Zone", "setting": "Streptococcus mutans [1]; Treatment Temp. 70 ° C.", "value": 16, "unit": "mm"}, {"measurement": "Diameter of Clear Zone", "setting": "Streptococcus mutans [1]; Treatment Temp. 80 ° C.", "value": 17, "unit": "mm"}, {"measurement": "Diameter of Clear Zone", "setting": "Streptococcus mutans [1]; Treatment Temp. 90 ° C.", "value": 17, "unit": "mm"}, {"measurement": "Diameter of Clear Zone", "setting": "Streptococcus mutans [1]; Treatment Temp. 100 ° C.", "value": 18, "unit": "mm"}, {"measurement": "Diameter of Clear Zone", "setting": "Streptococcus mutans [1]; Treatment Temp. 121 ° C.", "value": 17, "unit": "mm"}, {"measurement": "MIC", "setting": "[2]", "value": 250, "unit": "µg/mL"}, {"measurement": "MIC", "setting": "[3]", "value": 125, "unit": "µg/mL"}, {"measurement": "MIC", "setting": "[4]", "value": 62.5, "unit": "µg/mL"}, {"measurement": "MIC", "setting": "[5]", "value": 16, "unit": "µg/mL"}, {"measurement": "MIC", "setting": "[6]", "value": 4, "unit": "µg/mL"}, {"measurement": "MIC", "setting": "[7]", "value": 2, "unit": "µg/mL"}, {"measurement": "MIC", "setting": "[8]", "value": 125, "unit": "µg/mL"}, {"measurement": "MIC", "setting": "[9]", "value": 125, "unit": "µg/mL"}, {"measurement": "MIC", "setting": "[10]", "value": 16, "unit": "µg/mL"}, {"measurement": "MIC", "setting": "[11]", "value": 32, "unit": "µg/mL"}, {"measurement": "MIC", "setting": "[12]", "value": 250, "unit": "µg/mL"}, {"measurement": "MIC", "setting": "[13]", "value": 4, "unit": "µg/mL"}, {"measurement": "MIC", "setting": "[14]", "value": 500, "unit": "µg/mL"}, {"measurement": "MIC", "setting": "[15]", "value": 250, "unit": "µg/mL"}, {"measurement": "MIC", "setting": "[16]", "value": 500, "unit": "µg/mL"}, {"measurement": "MIC", "setting": "[17]", "value": 125, "unit": "µg/mL"}, {"measurement": "efflux of protein, neucleic acid and ion", "setting": "Streptococcus mutans [18]", "value": "increased dramatically in 5 minutes"}, {"measurement": "cell morphology (TEM)", "setting": "the pathogens", "value": "cell wall expansion was detected, followed by cell disruption"}]}]}
